Data reported in the supplement of paper PMC10307832.

Assays:
Assay in all cases: relative viability (nuclei count vs DMSO), 5 days (fraction); higher = more cells survive
[1] = compound: C1CNCCC1C2=CC(=NN2)C3=CC=NC=C3 + CC(=O)c1c(C)c2cnc(Nc3ccc(N4CCNCC4)cn3)nc2n(C2CCCC2)c1=O [Palbociclib] (partner 0.5 µM)
Procedure, shortened: (§1)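 Lung cancer cell lines, seeded in 1536-well plates, were treated the following day by pin tool with a single drug or with five library-drug doses (not always all listed) in √10 steps on top of a fixed anchor-drug dose. Cells were fixed and nuclei stained in one step after 5 days, and nuclei were counted. Relative viability is the nuclei count for treated wells divided by that for vehicle wells, reported as medians of duplicate plates.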

[2] = compound: C1CNCCC1C2=CC(=NN2)C3=CC=NC=C3 + CS(=O)(=O)N1CCN(Cc2cc3nc(-c4cccc5[nH]ncc45)nc(N4CCOCC4)c3s2)CC1 [Pictilisib] (partner 1 µM)
Procedure, shortened: as §1

[3] = compound: C[C@@H](N)c1ccc(C(=O)Nc2ccnc3[nH]ccc23)cc1 + CS(=O)(=O)CCNCc1ccc(-c2ccc3ncnc(Nc4ccc(OCc5cccc(F)c5)c(Cl)c4)c3c2)o1 [Lapatinib] (partner 2 µM)
Procedure, shortened: as §1

[4] = compound: C[C@@H](N)c1ccc(C(=O)Nc2ccnc3[nH]ccc23)cc1 + O=C(c1cc(Cc2n[nH]c(=O)c3ccccc23)ccc1F)N1CCN(C(=O)C2CC2)CC1 [Olaparib] (partner 8 µM)
Procedure, shortened: as §1

Row | Cell Line | relative viability ([1]; first compound 0.08 µM) | relative viability ([1]; first compound 0.8 µM) | relative viability ([1]; first compound 2.53 µM) | relative viability ([1]; first compound 8 µM) | relative viability ([2]; first compound 0.08 µM) | relative viability ([2]; first compound 0.8 µM) | relative viability ([2]; first compound 2.53 µM) | relative viability ([2]; first compound 8 µM) | relative viability ([3]; first compound 0.04 µM) | relative viability ([3]; first compound 0.1265 µM) | relative viability ([3]; first compound 0.4 µM) | relative viability ([3]; first compound 1.265 µM) | relative viability ([3]; first compound 4 µM) | relative viability ([4]; first compound 0.04 µM) | relative viability ([4]; first compound 0.1265 µM) | relative viability ([4]; first compound 0.4 µM) | relative viability ([4]; first compound 1.265 µM) | relative viability ([4]; first compound 4 µM)
1 | BEN | 0.447 | 0.47 | 0.45 | 0.433 | 0.518 | 0.587 | 0.555 | 0.722 | 0.706 | 0.675 | 0.99 | 0.781 | 0.438 | 1.04 | 1.08 | 1.11 | 1.27 | 0.542
2 | NCI-H3122 | 0.152 | 0.185 | 0.181 | 0.178 | 0.59 | 0.549 | 0.694 | 0.587 | 0.966 | 1.04 | 1.08 | 0.875 | 0.981 | 0.625 | 0.613 | 0.638 | 0.702 | 0.622
3 | SK-MES-1 | 0.308 | 0.316 | 0.37 | 0.353 | 0.397 | 0.344 | 0.404 | 0.319 | 0.518 | 0.459 | 0.428 | 0.423 | 0.444 | 0.813 | 0.834 | 0.697 | 0.639 | 0.638
4 | HOP-62 | 0.34 | 0.489 | 0.463 | 0.468 | 0.654 | 0.816 | 0.791 | 0.717 | 0.929 | 0.784 | 1.02 | 0.512 | 0.982 | 0.43 | 0.381 | 0.419 |  | 0.47
5 | HCC-366 | 0.336 | 0.409 | 0.398 | 0.385 | 0.162 | 0.127 | 0.11 | 0.182 | 1 | 1.15 | 1.11 |  | 1.04 | 0.345 | 0.368 | 0.371 | 0.447 | 0.389
6 | NCI-H2347 | 0.385 | 0.453 | 0.44 | 0.431 | 0.661 | 0.672 | 0.651 | 0.494 | 0.833 | 0.959 | 0.933 | 0.347 | 0.868 | 0.53 | 0.579 | 0.534 | 0.566 | 0.461
7 | LXF-289 | 0.599 | 0.644 | 0.646 | 0.58 | 0.776 | 0.845 | 0.823 | 0.829 | 0.968 | 0.891 | 0.959 | 1.02 | 0.851 | 1.12 | 1.05 | 1.16 | 1.23 | 0.901
8 | NCI-H1793 | 0.296 |  | 0.329 | 0.364 | 0.294 | 0.357 | 0.422 | 0.358 | 0.828 | 0.564 | 0.907 |  | 0.888 | 1.09 | 0.999 | 1.04 |  | 0.928
